{"source": "paper PMC7504817", "about": "“Phenylalanine Stereoisomers of CJ-15,208 and [D-Trp]CJ-15,208 Exhibit Distinctly Different Opioid Activity Profiles” (Molecules, 2020)", "key": {"rat KOR [1]": {"target": "T1, rat KOR (Rattus norvegicus, UniProt P34975)", "T1 sequence (P34975 whole entry)": "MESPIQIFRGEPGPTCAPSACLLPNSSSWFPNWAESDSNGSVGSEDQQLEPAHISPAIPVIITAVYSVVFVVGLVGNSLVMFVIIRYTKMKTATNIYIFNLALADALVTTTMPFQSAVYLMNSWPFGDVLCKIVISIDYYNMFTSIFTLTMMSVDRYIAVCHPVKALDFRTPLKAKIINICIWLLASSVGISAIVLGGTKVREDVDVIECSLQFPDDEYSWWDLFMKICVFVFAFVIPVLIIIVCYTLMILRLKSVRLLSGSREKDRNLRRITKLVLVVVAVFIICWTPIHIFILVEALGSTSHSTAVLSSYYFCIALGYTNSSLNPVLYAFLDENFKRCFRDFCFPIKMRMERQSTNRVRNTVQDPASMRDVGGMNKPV", "test": "biochemical"}, "rat KOR [2]": {"target": "T1, rat KOR", "details": "ratio Ki(MOR)/Ki(KOR)"}, "C57BL/6J mice [3]": {"tested_on": "C57BL/6J mice", "set-up": "key to ED50 i.c.v. (symbol: not calculable) / ED50 p.o. (symbol: not calculable): ~: Maximum antinociception not achieved, precluding calculation of an ED50 value", "details": "ref [19], cited from earlier work"}, "mouse DOR": {"tested_on": "mouse DOR", "details": "radioligand binding; ref [19]; cited from earlier work"}, "[4]": {"test": "Metabolic stability in mouse liver microsomes", "type": "in vitro ADME", "details": "pH 7.4, 5 µM peptide, 0.25 mg/mL protein, with NADPH, 37 °C, read-out: t1/2 in mouse liver microsomes", "protocol": "The macrocyclic tetrapeptide (5 µM) in 1% acetonitrile was incubated with mouse liver microsomes (0.25 mg/mL protein, Xenotech, Lenexa, KS, USA) at 37 °C in the presence or absence of co-factor NADPH RapidStart System (1 mM, Xenotech) or NADPH solution (Sigma, St. Louis, MO, USA) in potassium phosphate buffer (50 mM, pH 7.4). Aliquots (100 µL) taken at 0, 5, 15, 30, 60 and 120 min were quenched with ice-cold acetonitrile (1 vol) containing internal standard ([D-NMeAla^2]CJ-15,208 [26], 5 µM) to precipitate the proteins. The lack of endogenous interference with the analysis of the stereoisomer or internal standard was confirmed by analyzing samples lacking the macrocyclic tetrapeptide.\nFollowing centrifugation at 10,000× g rpm for 10 min, the supernatant (50 µL) was diluted with water (75 µL), stored overnight at −20 °C and analyzed by LC-MS/MS using methodology similar to that described for [D-Trp]CJ-15,208 [32]. Liquid chromatography was performed on a Hypersil BDS C8 column (50 mm × 2.1 mm, 3 µm) with a flow rate of 0.2 mL/min and an injection volume of 20 µL using an Acquity UPLC system (Waters, Milford, MA, USA). The peptides were separated using a gradient of aqueous acetonitrile containing 0.08% formic acid of 20% B (0–2 min), 20–50% B (2–3 min), 50–80% B (3–6 min), 80% B (6–7 min), 80–20% B (7–8 min) and 20% B (8–10 min).\nESI-MS/MS was performed on a Waters Quatro triple quadrupole instrument operating in the positive ion multiple reaction monitoring mode. Data acquisition was carried out with Mass Lynx 4.1 software with the following settings: capillary voltage, 2500 V; cone voltage, 30 V; source temperature, 100 °C; desolvation temperature, 250 °C; cone gas flow, 279 L/h; desolvation gas flow, 1157 L/h; LM 1 resolution, 14; HM 1 resolution, 14; ion energy 1, 1.0; MS/MS mode entrance, -1; MS/MS collision energy, 35 eV; MS/MS mode exit, 2; LM 2 resolution, 13.0; HM 2 resolution, 13.0; ion energy 2, 1.5; multiplier, 650; collision cell pressure, 1.63 × 10^−3 mbar; collision gas, argon. The transition m/z 578.2 ([M + H]^+) → 217.2 was monitored to determine the peak area counts of the stereoisomers, and m/z 566.2 ([M + H]^+) → 232.9 was monitored to determine the peak area counts of the internal standard (collision energy 22 eV) with the following settings: dwell time, 0.3 s; delay, 0.05 s."}, "C57BL/6J mice [5]": {"tested_on": "C57BL/6J mice", "test": "Opioid receptor involvement in antinociception (antagonist pretreatment, tail-withdrawal assay)", "type": "in vivo, mouse", "details": "i.c.v. (1, 3, 4, 5 at 10 nmol, 2 at 100 nmol); pretreatment with β-FNA, nor-BNI or naltrindole"}, "C57BL/6J mice [6]": {"tested_on": "C57BL/6J mice", "details": "mouse, in vivo"}, "C57BL/6J mice [7]": {"tested_on": "C57BL/6J mice", "details": "mouse, in vivo", "remark": "listed apart in the source"}, "rat MOR": {"target": "T2, rat MOR (Rattus norvegicus, UniProt P33535)", "T2 construct": "expressed in transfected cells", "T2 sequence (P33535 whole entry)": "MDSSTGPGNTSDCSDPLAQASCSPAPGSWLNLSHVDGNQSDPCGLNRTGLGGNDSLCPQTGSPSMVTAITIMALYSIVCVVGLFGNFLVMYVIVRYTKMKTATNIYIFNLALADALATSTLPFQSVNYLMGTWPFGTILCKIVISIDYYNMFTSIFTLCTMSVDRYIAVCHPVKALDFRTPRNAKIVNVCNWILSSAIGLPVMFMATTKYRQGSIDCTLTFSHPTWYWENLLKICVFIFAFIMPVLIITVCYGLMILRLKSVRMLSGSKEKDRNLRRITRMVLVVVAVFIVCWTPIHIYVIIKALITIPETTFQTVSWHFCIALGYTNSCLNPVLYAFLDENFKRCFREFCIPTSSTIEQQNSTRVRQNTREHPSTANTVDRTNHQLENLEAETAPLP", "test": "Radioligand equilibrium competition binding, MOR", "details": "[3H]DAMGO; membranes from CHO cells expressing rat MOR; mean ± SEM, at least three experiments"}, "C57BL/6J mice [8]": {"tested_on": "C57BL/6J mice", "test": "55 °C warm-water tail-withdrawal assay (antinociception)", "type": "in vivo, mouse", "set-up": "key to ED50 p.o. (symbol: not calculable): ~: Maximum antinociception not achieved, precluding calculation of an ED50 value", "protocol": "For intracerebroventricular (i.c.v.) administration the macrocyclic tetrapeptides were dissolved in dimethyl sulfoxide (DMSO), followed by addition of sterile saline (0.9%) so that the final vehicle was 50% DMSO and 50% saline, and the i.c.v. injections performed as described previously. This concentration of DMSO was not observed to have antinociceptive or behavioral effects in previous use. For per os (p.o.) administration the macrocyclic tetrapeptides were administered in 10% Solutol in 0.9% saline. All solutions for animal administration were prepared fresh daily.\nThe 55 °C warm-water tail-withdrawal assay was performed in mice as previously described, with the latency of the mouse to withdraw its tail from the water taken as the endpoint (a cut-off time of 15 sec was used in this assay). Antinociception was calculated according to the following formula: % antinociception = 100 × (test latency − control latency)/(15 − control latency). Tail-withdrawal data points are the means of 8–16 mice, unless otherwise indicated, with SEM shown by error bars.\nAll dose-response lines were analyzed by regression, and ED50 (effective dose producing 50% antinociception) values and 95% confidence intervals (C.I.) determined using individual data points from graded dose-response curves with Prism 8.0 software (GraphPad, La Jolla, CA, USA). Percent antinociception was used to determine within group effects and to allow comparison to baseline latency in tail-withdrawal experiments. The statistical significance of differences between ED50 values was determined by evaluation of the ED50 value shift via nonlinear regression modeling with Prism software. Significant differences in behavioral data were analyzed by ANOVA (one-way or two-way with repeated measures (RM), as appropriate). Significant results were further analyzed with Sidak’s, Tukey’s, or Dunnett’s multiple comparison post hoc tests, as appropriate. Data for conditioned place preference experiments were analyzed by two-way RM ANOVA, with analyses examining the main effect of conditioned place preference phase (e.g., pre- or post-conditioning) and the interaction of drug pretreatment. Significant effects were further analyzed using Sidak’s HSD post hoc testing. All data are presented as mean ± SEM, with significance set at p < 0.05."}, "C57BL/6J mice [9]": {"tested_on": "C57BL/6J mice", "test": "Acute antinociceptive tolerance (tail-withdrawal assay, dosing at 0 and 8 h)", "details": "i.c.v."}}, "note": "Like-named read-outs stand apart in the source and are kept apart here.", "data": [{"smiles": "O=C1N[C@H](Cc2c[nH]c3ccccc23)C(=O)N[C@@H](Cc2ccccc2)C(=O)N2CCC[C@@H]2C(=O)N[C@H]1Cc1ccccc1", "note": "[[D-Trp]CJ-15,208, cyclo[Phe-D-Pro-Phe-D-Trp]]", "values": [{"measurement": "Ki", "setting": "rat KOR [1]", "result": "0.0218 ± 0.0048", "unit": "µM"}, {"measurement": "Selectivity Ki (MOR) Ki (KOR)", "setting": "rat KOR [2]", "result": 12}, {"measurement": "ED50 i.c.v. (symbol: not calculable)", "setting": "C57BL/6J mice [3]; i.c.v., mice, [21]", "result": "~"}, {"measurement": "ED50 p.o. (symbol: not calculable)", "setting": "C57BL/6J mice [3]; p.o., mice, [21]", "result": "~"}, {"measurement": "antinociceptive activity", "setting": "C57BL/6J mice [3]", "result": "minimal antinociceptive activity"}, {"measurement": "affinity for DOR", "setting": "mouse DOR", "result": "negligible affinity for DOR"}]}, {"smiles": "O=C1N[C@H](Cc2c[nH]c3ccccc23)C(=O)N[C@H](Cc2ccccc2)C(=O)N2CCC[C@@H]2C(=O)N[C@H]1Cc1ccccc1", "note": "(single isomer, unassigned) [Stereoisomer 4, cyclo[D-Phe-D-Pro-Phe-D-Trp]]", "values": [{"measurement": "Ki", "setting": "rat KOR [1]", "result": "> 10", "unit": "µM"}, {"measurement": "half-life at 5 µM", "setting": "[4]", "result": 30, "unit": "min"}, {"measurement": "Receptors Involved (in antinociception)", "setting": "C57BL/6J mice [5]", "result": "KOR- and DOR-mediated"}, {"measurement": "effect on coordinated locomotor performance (rotarod) vs vehicle", "setting": "C57BL/6J mice [6]", "result": "limited impairment of performance"}, {"measurement": "effect on respiration rate vs vehicle", "setting": "C57BL/6J mice [7]", "result": "significant decreases in respiration rates"}, {"measurement": "Ki", "setting": "rat MOR", "result": "> 10000", "unit": "nM"}, {"measurement": "antinociception at the highest oral dose tested", "setting": "C57BL/6J mice [8]; 30 mg/kg, p.o.", "result": "45–60%"}, {"measurement": "time of peak antinociception", "setting": "C57BL/6J mice [8]; after i.c.v. administration", "result": 20, "unit": "min"}, {"measurement": "duration of significant antinociception", "setting": "C57BL/6J mice [8]; i.c.v. administration", "result": 45, "unit": "min"}, {"measurement": "ED50 (and 95% C.I.) i.c.v.", "setting": "C57BL/6J mice [8]; i.c.v., C57BL/6J mice, antinociception at peak response", "result": "2.39 (1.40–4.56) nmol"}, {"measurement": "duration of significant antinociception", "setting": "C57BL/6J mice [8]; p.o. administration", "result": "30 to 40", "unit": "min"}, {"measurement": "ED50 p.o. (symbol: not calculable)", "setting": "C57BL/6J mice [8]; p.o., C57BL/6J mice", "result": "~"}, {"measurement": "Fold-Shift, Naïve ED50 vs. Second ED50", "setting": "C57BL/6J mice [9]; 0 h vs 8 h", "result": 0.54, "unit": "fold"}, {"measurement": "ED50 (95% C.I.) Pretreated Mice", "setting": "C57BL/6J mice [9]; 8 h after pretreatment with ED50 dose of the same compound, * significantly different from naïve", "result": "1.28 (0.96–1.66) nmol"}, {"measurement": "acute antinociceptive tolerance", "setting": "C57BL/6J mice [9]; ED50 at 8 h vs 0 h", "result": "Neither stereoisomer 4 or 5 demonstrated any significant changes in the ED50 values"}, {"measurement": "Naïve ED50 (95% C.I.)", "setting": "C57BL/6J mice [9]; naïve C57BL/6J mice, tail-withdrawal assay", "result": "2.39 (1.40–4.56) nmol"}]}]}
